# Source: patent US4544512A, “Tridecyloxy- or tetradecyloxy-propane derivatives” (Takeda Chemical Industries, Ltd., priority 1980, dated 1985)
# Assays:
# normal bone marrow cells = assay: Growth inhibition of normal mouse bone marrow cells (GD50); assay type: cell-based, mice (SL-strain); conditions: Bone marrow cell, 72 h, 3 days, 37° C., Trypan Blue dye-exclusion, read-out: GD50 Normal mouse bone marrow cells (B)
# Procedure: (§1) BALB/c mice at a concentration of 1 μg/ml (Cancer Res. 39, pp. 4681-4686 (1979)). The present inventors conducted comparative tests between octadecyl phospholipid and the corresponding tridecyl compound as well as tetradecyl compound on the activity (GD50) to inhibit the multiplication of spontaneous myeloid leukemia cells M1 in mice. […] The effect on the corresponding normal cells, i.e. on the myeloid cells of normal mice, is far weaker in the tetradecyl compounds. Therefore, in view of the balance of the inhibiting activity against multiplication of tumor cells and the safety (Chemotherapy Coefficient), it can be said that tetradecyl phospholipid is preferable to octadecyl phospholipid.
# (§2) By employing Eagle's minimum essential medium supplemented with 10% heat-inactivated calf serum, incubation of spontaneous myeloid leukemia M1 cells (Resistant clone) harvested from mice (SL-strain) and normal bone marrow cells of mice of the same strain was conducted, in the presence or absence of the test compound in various concentrations, in a humified CO2 incubator at 37° C. for 3 days. The number of viable cells was determined by the Trypan Blue Stain dye-exclusion test. The concentration of the tested compound for 50% inhibiting the proliferation of M1 cells or normal bone marrow cells (GD50) was determined, and the result was shown in Table 1.
# [1] = test system: spontaneous myeloid leukemia M1 cells; assay: Growth inhibition of cultured spontaneous mouse myeloid leukemia M1 cells (GD50); assay type: cell-based, mice (SL-strain); conditions: for IC50: Mus musculus, 72 h, 3 days, 37° C., Trypan Blue dye-exclusion, M1 Resistant clone; for B/A (GD50 normal bone marrow cells / GD50 M1 cells): ratio of GD50 values, 4320 min
# Procedure: as §1, §2
smiles,measurement,setting,value
CCCCCCCCCCCCCCOCC(COP(=O)([O-])OCC[N+](C)(C)C)OC (stereo not drawn) [drawing 18],IC50,normal bone marrow cells,40 µg/mL
same,IC50,[1],1.2 µg/mL
same,B/A (GD50 normal bone marrow cells / GD50 M1 cells),[1],33
"CCCCCCCCCCCCCCCCCCOCC(COP(=O)([O-])OCC[N+](C)(C)C)OC (stereo not drawn) [drawing 17, reference compound]",IC50,normal bone marrow cells,15 µg/mL
same,IC50,[1],0.6 µg/mL
same,B/A (GD50 normal bone marrow cells / GD50 M1 cells),[1],25
